According to patent publication US4371537A, “Sulfur-substituted phenoxypyridines having antiviral activity” (The Dow Chemical Company, priority 1981, dated 1983):
Converted amounts (≈) assume the structure as drawn.

Columns and labels:
[1] = Cytotoxicity in tissue culture testing (HeLa monolayers); format: cell-based; details: human; HeLa cells; observed at 48 and 72 hours post-treatment; read-out: Cytotoxicity: concentration of the compound found to be toxic to the cell
Description: (§1) Monolayered HeLa cells in 16 millimeter (mm) tissue culture dishes were treated with 1 ml of culture medium (Eagles medium supplemented with fetal calf serum) containing subject compound at an appropriate concentration or containing no compound at all. Culture media such as those described herein are more fully described in standard texts, as for example, Kuchler's Biochemical Methods in Cell Culture and Virology, Dowden, Hutchinson and Ross, Inc., Stroudsberg, PA (1977). Following treatment, cells were challenged with 0.05 ml of rhinovirus type 1A (RV-1A), rhinovirus type 2 (RV-2) or Coxsackie A21 virus (Cox A21) in culture medium. Some of the compounds were also tested against rhinovirus type 5 (RV-5), rhinovirus type 8 (RV-8) or rhinovirus type 64 (RV-64). Cell controls received no viruses.
^1 Cytotoxicity figures represent the concentration of the compound, […]

[2] = tested on: rhinovirus type 64 (RV-64); assay: Tissue culture testing, rhinovirus type 64 in HeLa cells; format: cell-based; details: Enterovirus, 48 and 72 hours, NA = not active at the standard test conditions, read-out: RV-64: lowest concentration of the compound necessary to cause a 50 percent reduction in cytopathic effect
Description: as §1
(§2) ^2 Lowest concentration of the compound (μg/ml) necessary to cause

[3] = tested on: rhinovirus type 1A (RV-1A); assay: Tissue culture testing, rhinovirus type 1A in HeLa cells; format: cell-based; details: Enterovirus, 48 and 72 hours, NA = not active at the standard test conditions, read-out: RV-1A: lowest concentration of the compound necessary to cause a 50 percent reduction in cytopathic effect
Description: as §1, §2

[4] = tested on: Coxsackie A21 virus (Cox A21); assay: Tissue culture testing, Coxsackie A21 virus in HeLa cells; format: cell-based; details: 48 and 72 hours, NA = not active at the standard test conditions, read-out: Cox A21: lowest concentration of the compound necessary to cause a 50 percent reduction in cytopathic effect
Description: as §1, §2

rhinovirus type 2 (RV-2) = assay: Tissue culture testing, rhinovirus type 2 in HeLa cells; format: cell-based; details: Enterovirus, 48 and 72 hours, NA = not active at the standard test conditions, read-out: RV-2: lowest concentration of the compound necessary to cause a 50 percent reduction in cytopathic effect
Description: as §1, §2

Coxsackie A21 virus = assay: Continuous Oral Feeding test in mice challenged IP with Coxsackie A21 virus; format: in vivo; details: po, 0.06 % in diet, 240 h
Description: Some of the compounds were also tested in animals utilizing the following procedure, hereainafter referred to as the "Continuous Oral Feeding" test. Coxsackie A21 virus grown on HeLa cells was administered at a concentration that produces 80 to 100% deaths in mice weighing 8 to 12 grams within 10 days, when the mice are injected (IP) with 0.2 ml of virus preparation. Mice were placed on diets containing test compound dispersed in plain commercially available rodent mash chow at a concentration of 0.06% (weight percent) on day 0. On day 1 the mice were challenged with the virus preparation, 0.2 ml/mouse, (IP). Deaths in both control and experimental groups were recorded for the 10 days and the results analyzed by a chi-square (.chi.^2) test. Chi-square values greater than 3.84 indicate the compound is active (95% confidence level).

Cox A21 = assay: Single Oral Dose test in mice challenged IP with Cox A21; format: in vivo, Swiss male mice; details: >3.84 significant (95% confidence level)
Description: In addition, some of the compounds were tested in animals utilizing the following procedure, hereinafter referred to as the "Single Oral Dose" test. Swiss male mice, 8-12 grams in weight were challenged intraperitoneally (IP) with 0.2 ml of a normally lethal dose, i.e., a virus dose sufficient to cause […].80-100% mortality in infected animals within 10 days of challenge of Cox A21, in phosphate buffered saline containing 1% heat inactivated fetal calf serum. Three hours later mice were treated orally (P.O.) with 0.2 ml of compound suspended in 0.5% hydroxypropyl methylcellulose (Methocel) or with 0.2 ml of 0.5% Methocel containing no compound. […] Mice were observed daily for 7-10 days post-challenge and deaths recorded. A modified Mantel-Haenzel combined chi-square procedure was used to determine significant difference between virus control and treated groups. Chi-square values greater than 3.84 are considered significant (95% confidence level) in this test.

[5] = tested on: 20 different rhinoviruses; assay: Summary of WI-38 tissue culture testing against 20 rhinoviruses; format: cell-based; details: 12.5 μg/ml; of 20 rhinoviruses
Description: The test compound was dissolved in an appropriate solvent (generally dimethyl sulfoxide) and incubated at 56° C. for at least 15 minutes and this solution was then used to prepare various test solutions having the desired concentration of test compound in preheated WI maintenance medium (49% Eagles, 49% medium 199, 2% fetal calf serum and antibiotics).
Triplicate cell culture tubes (WI-38 human embryonic lung cell culture tubes) were fed with 1 ml of medium containing the compound at specified concentrations and inoculated with 3-300 TCID50 (3-300 times the tissue culture infective dose 50, i.e., the dose required to infect 50% of the cell cultures tested). Simultaneous viral titrations were performed. The tissue cultures were supplemented with fresh medium when necessary (around 3-4 days) until viral titrations were completed.
The cell culture tubes were examined dialy for cytopathic effect. […] Comparisons were made at that time with the percentage of cell sheet destruction in tubes containing virus compound mixtures. Observed differences of 75% or more were graded "+", 74-50% as "±", and less than 50% as "-" inhibition.

[6] = 600 mg/kg P.O. 3 h after IP challenge

Compound: CS(=O)(=O)c1ccc(Oc2ccc(SC(F)(F)F)cc2)nc1 [Example 27, 5-(methylsulfonyl)-2-(4-((trifluoromethyl)thio)phenoxy)pyridine]
- MCC [1]: ≥ 100 µg/mL
- EC50 [2]: < 6.25 µg/mL
- EC50 [3]: 12.5 µg/mL (≈ 35.8 µM)
- EC50 [4]: < 6.25 µg/mL
- EC50 (rhinovirus type 2 (RV-2)): < 6.25 µg/mL
- Continuous Oral Feeding X^2 (chi-square, deaths vs control) (Coxsackie A21 virus): 29.753
- Single Oral Dose X^2 (chi-square, deaths vs virus control) (Cox A21; [6]): 39.700

Compound: CCS(=O)(=O)c1ccc(Oc2ccc(Cl)cc2)nc1 [2-(4-chlorophenoxy)-5-(ethylsulfonyl)pyridine]
- number of test rhinoviruses against which the compound was graded "+" [5]: 13 test rhinoviruses
- number of test rhinoviruses against which the compound was graded "±" [5]: 4

Compound: CC(C)S(=O)(=O)c1ccc(Oc2ccc(Cl)c(Cl)c2)nc1 [Example 49, 2-(3,4-dichlorophenoxy)-5-((1-methylethyl)sulfonyl)pyridine]
- MCC [1]: 12.5 µg/mL
- EC50 [2]: 0.625 µg/mL (≈ 1.81 µM)
- EC50 [3]: < 0.312 µg/mL
- EC50 [4]: 0.625 µg/mL (≈ 1.81 µM)
- EC50 (rhinovirus type 2 (RV-2)): 0.625 µg/mL (≈ 1.81 µM)
- Continuous Oral Feeding X^2 (chi-square, deaths vs control) (Coxsackie A21 virus): 3.851
- Single Oral Dose X^2 (chi-square, deaths vs virus control) (Cox A21; 400 mg/kg P.O. 3 h after IP challenge): 0.004

Compound: CS(=O)(=O)c1ccc(Oc2ccc(Cl)cc2)nc1 [2-(4-chlorophenoxy)-5-(methylsulfonyl)pyridine]
- number of test rhinoviruses against which the compound was graded "+" [5]: 13 test rhinoviruses
- number of test rhinoviruses against which the compound was graded "±" [5]: 3

Compound: CC(C)S(=O)(=O)c1ccc(Oc2ccc(Br)cc2)nc1 [Example 50, 2-(4-bromophenoxy)-5-((1-methylethyl)sulfonyl)pyridine]
- MCC [1]: 12.5 µg/mL
- EC50 [2]: 2.5 µg/mL (≈ 7.02 µM)
- EC50 [3]: 1.25 µg/mL (≈ 3.51 µM)
- EC50 [4]: 1.25 µg/mL (≈ 3.51 µM)
- EC50 (rhinovirus type 2 (RV-2)): 1.25 µg/mL (≈ 3.51 µM)
- Continuous Oral Feeding X^2 (chi-square, deaths vs control) (Coxsackie A21 virus): 1.243
- Single Oral Dose X^2 (chi-square, deaths vs virus control) (Cox A21; [6]): 10.040
